Experiments:
[1] = tested on: peripheral blood mononuclear cells (PBMC); test: Cytokine secretion by PBMC stimulated with megaCD40L (after IFN-γ); type: cell-based, human; conditions: megaCD40L stimulus
Protocol: (§1) PBMC were freshly isolated from heparinized human blood using Fycoll density gradient centrifugation (Histopaque; Sigma Diagnostics). PBMC were cultured in RPMI containing 10% FCS in round-bottom 96-well plates at a concentration of 5×10E5 cells/mL. Two different stimuli were used to induce cytokine secretion from PBMC: • 1. PBMC were cultured in the presence of IFN-γ (250 U/mL) for 24 hours to induce upregulation of CD40. The CD40 pathway was subsequently activated for 24 hours with megaCD40L (100 ng/mL, Enzo Life Sciences). • 2. PBMC were cultured in the presence of IFN-γ for 24 hours to induce upregulation of CD40. Cells were subsequently stimulated for 24 hours with megaCD40L (100 ng/mL) and LPS (100 ng/mL).
(§2) Stimulated PBMC were cultured in the absence or presence of variable concentrations of PG102 (5, 10 and 100 ng/mL) and/or 6-ECDCA (0.1, 1 and 5 μM). PG102 was added simultaneously with the stimulus. In contrast, 6-ECDCA was added 3 hours before adding the stimulus. At the end of the culture period, supernatants were collected and stored at −80° C. until cytokine analysis was performed. The BD cytometric Bead Array (CBA) Human Inflammatory Cytokines Kit (BD Biosciences) was used to measure IL-1β, IL-8, IL-6, TNF and IL-12p70 levels in the culture supernatants. The assay was performed according to the manufacturer's instructions. In brief, capture beads for the cytokines of interest were mixed with supernatant or human inflammatory cytokine standards and PE detection reagent. Samples were incubated for 3 hours at room temperature in the dark. Subsequently, samples were washed and analyzed on a FACS CANTO II cytometer (BD Biosciences). Data was analyzed using de FCAP Array software (BD Biosciences).

[2] = tested on: peripheral blood mononuclear cells (PBMC); test: Cytokine secretion by PBMC stimulated with megaCD40L and LPS (after IFN-γ); type: cell-based, human
Protocol: as §1, §2

C57/Bl6 wild type mice = test: DSS-induced colitis mouse model; type: in vivo
Protocol: Colitis was induced in C57/Bl6 wild type mice by administration of 2.5% (wt/vol) Dextran Sodium Sulphate (DSS; MW. 36000-50000 Da, MP Biochemicals Inc) in drinking water for 8 days. Pharmacological activation of FXR was accomplished by treatment with 6-ethyl-chenodeoxycholic acid (6-ECDCA). 6-ECDCA (10 mg/kg/day) or vehicle were administered by oral gavage for three days prior to the start of DSS-treatment, and continued until the end of the DSS-treatment. At the second day of DSS treatment (day 4 of 6-ECDCA treatment), mice were given an intraperitoneal (i.p.) injection with 250 μg of the hamster antibody against mouse CD40L, MR-1, or control IgG (LEAF™ Purified Armenian Hamster IgG Isotype Ctrl Antibody, Biolegend).
There were 5 treatment groups (n=10 mice/group) in the experiment: […]
Daily changes in body weight were assessed and the body weight at day 2-11 was expressed relative to the body weight at day 1. […] 4 h after FITC administration, mice were sacrificed and the amount of fluorescence in the blood was determined as a marker for permeability. The colon was isolated and colon length was measured. […] Granulocytes were identified based on GR-1 and CD11b expression and expressed as percentage of living cells in the spleen. […] Culture supernatants were collected and TNF was measured using an ELISA.

[3] = tested on: LPS-induced TNF production; conditions: cited from earlier work
[4] = tested on: chemically induced intestinal inflammation; conditions: in vivo; cited from earlier work
[5] = 6-ECDCA 5 μM, megaCD40L and LPS stimulus

CC[C@H]1[C@@H](O)[C@@H]2[C@H](CC[C@]3(C)[C@@H]([C@H](C)CCC(=O)O)CC[C@@H]23)[C@@]2(C)CC[C@@H](O)C[C@@H]12 [6-ECDCA, 6-ethyl-chenodeoxycholic acid]
inhibition of IL-1β release ([1]; 6-ECDCA 5 μM): 35%
inhibition of IL-6 release ([1]; 6-ECDCA 5 μM): 18%
inhibition of IL-8 release ([1]; 6-ECDCA 5 μM): 17%
inhibition of IL-12p70 release ([1]; 6-ECDCA 5 μM): 20%
inhibition of TNF release ([1]; 6-ECDCA 5 μM): 14%
release of TNF, IL-6, IL-8, IL-1β and IL-12p70 ([1]; 6-ECDCA alone at 0.1 or 1 μM): did not inhibit
inhibition of IL-1β [2, 5]: 12%
inhibition of IL-6 [2, 5]: 0%
inhibition of IL-8 [2, 5]: 9%
inhibition of IL-12p70 [2, 5]: 22%
inhibition of TNF [2, 5]: 21%
inhibiting proinflammatory cytokine release ([2]; activation of the CD40 pathway alone or in combination with the TLR-4 pathway): not very effective
colitis disease process induced by DSS (C57/Bl6 wild type mice; 6-ECDCA 10 mg/kg/day oral gavage, MR-1 250 μg i.p. once, second day of DSS): interfered with the colitis disease process
granulocytes in the spleen (GR-1, CD11b; FACS) (C57/Bl6 wild type mice; end of experiment, FIG. 11): increase in granulocytes
LPS-induced TNF production [3]: inhibit LPS-induced TNF production in a dose-dependent fashion
chemically induced intestinal inflammation [4]: interfere with chemically induced intestinal inflammation
